The EC50 is the concentration giving half of the maximal effect. Read a high EC50 as lower potency in that assay.

The record followed here is patent US10323061B2, “Heteroaryl containing bile acid analogs as FXR/TGR5 agonists and methods of use thereof” (ENANTA PHARMACEUTICALS, INC., priority 2016, dated 2019).

This assay has as its target T1, human FXR (NR1H4) (Homo sapiens, UniProt Q96RI1).
T1 construct: host or cells: CHO (Chinese hamster ovary) cells
T1 sequence (Q96RI1 1-486): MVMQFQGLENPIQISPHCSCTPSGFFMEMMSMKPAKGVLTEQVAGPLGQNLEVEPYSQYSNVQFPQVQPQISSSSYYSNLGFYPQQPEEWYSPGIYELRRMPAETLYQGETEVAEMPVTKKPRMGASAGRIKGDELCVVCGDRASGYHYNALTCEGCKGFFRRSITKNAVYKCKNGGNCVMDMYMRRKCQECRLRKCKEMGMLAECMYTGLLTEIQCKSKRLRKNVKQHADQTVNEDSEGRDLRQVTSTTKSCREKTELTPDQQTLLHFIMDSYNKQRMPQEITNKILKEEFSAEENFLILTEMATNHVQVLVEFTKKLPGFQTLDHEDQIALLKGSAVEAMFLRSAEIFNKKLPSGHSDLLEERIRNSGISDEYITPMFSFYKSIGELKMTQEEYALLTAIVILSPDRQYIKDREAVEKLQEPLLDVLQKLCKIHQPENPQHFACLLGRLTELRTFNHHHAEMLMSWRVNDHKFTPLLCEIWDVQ
The assay is described as follows: Human FXR (NR1H4) Assay (Gal4 promoter driven luciferase reporter, Indigo Bioscience kit IB00601). In kind it is cell-based. As to conditions: CHO reporter cells expressing human NR1H4; for EC50: FXR agonistic potency range, 22 hours incubation; for Efficacy (%): normalized to CDCA set as 100%. From the text:
Assays Human FXR (NR1H4) Assay Determination of a ligand mediated Gal4 promoter driven transactivation to quantify ligand binding mediated activation of FXR. FXR Reporter Assay kit purchased from Indigo Bioscience (Catalogue number: IB00601) to determine the potency and efficacy of compound developed by Enanta that can induce FXR activation. The principal application of this reporter assay system is to quantify functional activity of human FXR. The assay utilizes non-human mammalian cells, CHO (Chinese hamster ovary) cells engineered to express human NR1H4 protein (referred to as FXR). Reporter cells also incorporate the cDNA encoding beetle luciferase which catalyzes the substrates and yields photon emission. Luminescence intensity of the reaction is quantified using a plate-reading luminometer, Envision. Reporter Cells include the luciferase reporter gene functionally linked to an FXR responsive promoter. Thus, quantifying changes in luciferase expression in the treated reporter cells provides a sensitive surrogate measure of the changes in FXR activity. […] The assay is according to the manufacturer's instructions. In brief, the assay was performed in white, 96 well plates using final volume of 100 ul containing cells with different doses of compounds. Retrieve Reporter Cells from −80° C. storage. Perform a rapid thaw of the frozen cells by transferring a 10 ml volume of 37° C. cell recovery medium into the tube of frozen cells. Recap the tube of Reporter Cells and immediately place it in a 37° C. water bath for 5-10 minutes. Retrieve the tube of Reporter Cell Suspension from the water bath. Sanitize the outside surface of the tube with a 70% alcohol swab, and then transfer it into the cell culture hood. Dispense 90 μl of cell suspension into each well of the 96-well Assay Plate. Transfer the plate into 37° C. incubator, allowing the cells adherent to the bottom of the well. Dilute compounds in Dilution Plate (DP), and administrate to cells at Assay Plate (AP). DMSO content of the samples was kept at 0.2%. Cells were incubated for additional 22 hours before luciferase activities were measured. Thirty minutes before intending to quantify FXR activity, remove Detection Substrate and Detection Buffer from the refrigerator and place them in a low-light area so that they may equilibrate to room temperature. Remove the plate's lid and discard all media contents by ejecting it into an appropriate waste container. Gently tap the inverted plate onto a clean absorbent paper towel to remove residual droplets. Cells will remain tightly adhered to well bottoms. Add 100 μl of luciferase detection reagent to each well of the assay plate. Allow the assay plate to rest at room temperature for at least 5 minutes following the addition of LDR. Set the instrument (Envision) to perform a single 5 second “plate shake” prior to reading the first assay well. Read time may be 0.5 second (500 mSec) per well.
Background: Reporter assays use an easily measured gene product as a stand-in for the process of interest.

As to `CC[C@H]1[C@@H](O)[C@@H]2[C@H](CC[C@]3(C)[C@@H]([C@H](C)Cc4nnc(NS(=O)(=O)N(C)C)[nH]4)CC[C@@H]23)[C@@]2(C)CC[C@@H](O)C[C@@H]12` [Example 8], the half-maximal effective concentration (EC50) was 0.1 to 1 µM and the “Efficacy (%)” value was determined as 234%.
In the same order, the values of `CC[C@H]1[C@@H](O)[C@@H]2[C@H](CC[C@]3(C)[C@@H]([C@H](C)CCc4nnc(N)o4)CC[C@@H]23)[C@@]2(C)CC[C@@H](O)C[C@@H]12` [Example 9] are 0.1 to 1 µM and 222%.
Consider `CC[C@H]1[C@@H](O)[C@@H]2[C@H](CC[C@]3(C)[C@@H]([C@H](C)CCc4nnc(C5CC5)o4)CC[C@@H]23)[C@@]2(C)CC[C@@H](O)C[C@@H]12` [Example 10], for which the concentration for a half-maximal effect (EC50) lay in the range of 0.1 to 1 µM and the “Efficacy (%)” value stood at 304%.
Take `CC[C@H]1[C@@H](O)[C@@H]2[C@H](CC[C@]3(C)[C@@H]([C@H](C)CCc4nc(C5CC5)no4)CC[C@@H]23)[C@@]2(C)CC[C@@H](O)C[C@@H]12` [Example 11]: the EC50 lay in the range of 1 to 10 µM and the “Efficacy (%)” value is 239%.
As to `CC[C@H]1[C@@H](O)[C@@H]2[C@H](CC[C@]3(C)[C@@H]([C@H](C)CCc4nnc(C5CC5)s4)CC[C@@H]23)[C@@]2(C)CC[C@@H](O)C[C@@H]12` [Example 12], the EC50 is 0.1 to 1 µM and the “Efficacy (%)” value is reported as 369%.
`CC[C@H]1[C@@H](O)[C@@H]2[C@H](CC[C@]3(C)[C@@H]([C@H](C)CCc4nnc(C5CC5)[nH]4)CC[C@@H]23)[C@@]2(C)CC[C@@H](O)C[C@@H]12` [Example 13]: the half-maximal effective concentration (EC50) was in the range of 1 to 10 µM and the “Efficacy (%)” value was 168%.
For `CC[C@H]1[C@@H](O)[C@@H]2[C@H](CC[C@]3(C)[C@@H]([C@H](C)CCc4nnc(N(C)C)o4)CC[C@@H]23)[C@@]2(C)CC[C@@H](O)C[C@@H]12` [Example 14], the EC50 is 0.1 to 1 µM and the “Efficacy (%)” value is 265%.
With `CC[C@H]1[C@@H](O)[C@@H]2[C@H](CC[C@]3(C)[C@@H]([C@H](C)CCc4nnc(-c5ccccc5)s4)CC[C@@H]23)[C@@]2(C)CC[C@@H](O)C[C@@H]12` [Example 15], the concentration giving a half-maximal response (EC50) lay within 0.1 to 1 µM and the “Efficacy (%)” value is given as 362%.
In the same order, the values of `CC[C@H]1[C@@H](O)[C@@H]2[C@H](CC[C@]3(C)[C@@H]([C@H](C)CCc4nnc(Cc5ccccc5)s4)CC[C@@H]23)[C@@]2(C)CC[C@@H](O)C[C@@H]12` [Example 16] are 0.1 to 1 µM and 378%.
For `CC[C@H]1[C@@H](O)[C@@H]2[C@H](CC[C@]3(C)[C@@H]([C@H](C)CCc4nnc(C(C)(C)C)s4)CC[C@@H]23)[C@@]2(C)CC[C@@H](O)C[C@@H]12` [Example 17], the EC50 lay in the range of 0.1 to 1 µM and the “Efficacy (%)” value came out at 314%.
The matching figures for `CC[C@H]1[C@@H](O)[C@@H]2[C@H](CC[C@]3(C)[C@@H]([C@H](C)CCc4nnc(C5CCCCC5)s4)CC[C@@H]23)[C@@]2(C)CC[C@@H](O)C[C@@H]12` [Example 18]: 1 to 10 µM and 244%.
Consider `CC[C@H]1[C@@H](O)[C@@H]2[C@H](CC[C@]3(C)[C@@H]([C@H](C)CCc4nnc(-c5ccc(C(C)(C)C)cc5)s4)CC[C@@H]23)[C@@]2(C)CC[C@@H](O)C[C@@H]12` [Example 19], for which the EC50 was in the range of 1 to 10 µM and the “Efficacy (%)” value was found to be 172%.
In the case of `CC[C@H]1[C@@H](O)[C@@H]2[C@H](CC[C@]3(C)[C@@H]([C@H](C)Cc4nnc(-c5ccc(C(C)(C)C)cc5)o4)CC[C@@H]23)[C@@]2(C)CC[C@@H](O)C[C@@H]12` [Example 20], the concentration for a half-maximal effect (EC50) is 1 to 10 µM and the “Efficacy (%)” value turned out to be 87%.
